Biological target: T1, S1P1 receptor (Homo sapiens, UniProt P21453)
T1 construct: expressed in transfected cells
Assay: S1P1 (EDG-1) GTP[γ-35S] binding assay, membranes from CHO cells
Assay type: biochemical
Details: CHO cell membranes
Method: A. In Vitro: GPCR Activation Assay Measuring GTP [γ-^35S] Binding to Membranes Prepared from CHO Cells Expressing Human S1P Receptors
S1P, (EDG-1) GTP [γ-^35S] binding assay: Homogenized membranes are prepared from CHO cell clones stably expressing a human EDG-1 N-terminal c-myc tag. Cells are grown in suspension in two 850 cm^2 roller bottles for three or fours days before harvesting. The cells are centrifuged down, washed once with cold PBS, and resuspended in ≦20 ml of Buffer A (20 mM HEPES, pH 7.4, […], EDTA-free complete protease inhibitor cocktail [1 tablet/25 ml]). The cell suspension is homogenized on ice, using a Polytron homogenizer at 30000 rpm at three intervals of 15 seconds each. The homogenate is first centrifuged at 2000 rpm on a tabletop low speed centrifuge for 10 minutes. The supernatant, after passing through a cell strainer, is then re-centrifuged at 50,000×g for 25 minutes at 4° C. The pellet is resuspended into buffer B (15% glycerol, 20 mM HEPES, pH 7.4, 0.1 mM EDTA, EDTA-free complete protease inhibitor cocktail [1 tablet/10 ml]). Protein concentration of the preparation is determined using the BCA Protein Assay kit (Pierce) using BSA as standard. The membranes are aliquoted and kept frozen at −80° C.
Solutions of test compounds ranging from 10 mM to 0.01 nM are prepared in DMSO. S1P is diluted in 4% BSA solution as positive controls. The desired amount of membrane preparation is diluted with ice-cold assay buffer (20 mM HEPES, pH 7.4, 100 mM NaCl, 10 mM MgCl2, 0.1% Fatty acid-free BSA, 5 μM GDP) and vortexed well. 2 μl or less of compound is distributed into each well of a round-bottom 96-well polystyrene assay plate, followed by addition of 100 μl of diluted membranes (3-10 μg/well) and kept on ice until the addition of hot GTPγS. [^35S]-GTPγS is diluted 1:1000 (v/v) with cold assay buffer and 100 μl is added into each well. The reaction is carried out at room temperature for 90 minutes before the membranes are harvested onto Perkin-Elmer Unifilter® GF/B-96 filter plate using a Packard Filtermate Harvester. […]

T1 sequence (P21453 whole entry): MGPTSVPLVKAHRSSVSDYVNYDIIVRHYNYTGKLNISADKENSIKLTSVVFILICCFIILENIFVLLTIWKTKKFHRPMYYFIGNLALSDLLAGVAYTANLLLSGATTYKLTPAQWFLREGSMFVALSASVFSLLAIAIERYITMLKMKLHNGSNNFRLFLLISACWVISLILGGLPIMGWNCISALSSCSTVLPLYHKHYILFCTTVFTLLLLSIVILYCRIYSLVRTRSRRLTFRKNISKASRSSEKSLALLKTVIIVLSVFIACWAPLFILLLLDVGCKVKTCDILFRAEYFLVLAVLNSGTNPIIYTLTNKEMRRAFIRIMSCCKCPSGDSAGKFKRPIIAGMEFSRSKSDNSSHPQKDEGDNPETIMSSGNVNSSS

| EC50 [nM] | Compound |
| --- | --- |
| < 100 | CCc1cc(-c2noc(-c3ccc(OC(C)C)c(-c4ccccc4)c3)n2)ccc1S(N)(=O)=O [Example 105] |
| < 100 | CCOc1ccc(-c2nc(-c3ccc(CN)cc3)no2)cc1C(F)(F)F [Example 21] |
| < 100 | CNCc1ccc(-c2noc(-c3ccc(-c4ccccc4)c(C(F)(F)F)c3)n2)cc1 [Example 44] |

Reference: patent publication US20100087491A1, “POLYCYCLIC COMPOUNDS” (priority 2006, published 2010)
